Test results as given in paper PMC11302339, “A series of pyrimidine-based antifungals with anti-mold activity disrupt ER function in Aspergillus fumigatus” (Microbiology Spectrum, 2024).
Values after ≈ are worked out from the molar mass of the structure shown.

Key:
[1] = system: S. cerevisiae; test: MIC testing (broth dilution, YPD); type: cell-based; settings: Saccharomyces cerevisiae, 24 h
Protocol: (§1) MICs were determined using Clinical and Laboratory Standards Institute guidelines ([48], [49]). All yeasts were cultured overnight in 3 mL YPD at 30°C, then washed twice in sterile phosphate-buffered saline (PBS). Twofold serial dilutions of each drug were prepared in RMPI + MOPS, then 1 × 10^3 cells were added per well. For mold species, wells were inoculated with 1.25 × 10^3 conidia per well. Plates were incubated at 37°C for 24 (Candida spp. and S. cerevisiae), 48 (Aspergillus spp., M. circinelloides, S. apiospermum, and L. prolificans), or 72 (C. neoformans and F. oxysporum) hours. S. cerevisiae BY4743 MICs were tested in YPD due to nutritional requirements of this strain. Each assay was performed in technical duplicate in at least two independent experiments performed on different days.

[2] = system: S. cerevisiae heterozygous mutants; test: Chemical haploinsufficiency screen and spot dilution validation; type: cell-based; settings: Saccharomyces cerevisiae, read-out: inhibition of wild-type growth
[3] = system: A. fumigatus biofilms; test: A. fumigatus hyphal (biofilm) activity, resazurin; type: cell-based, Aspergillus fumigatus; settings: conidia germinated 14 hours
Protocol: To determine antifungal activity against A. fumigatus hyphae, a 96-well plate was inoculated with 1 × 10^3 conidia per well in 100 µL RPMI + MOPS with the edge wells filled with 200 µL sterile water to minimize edge effects. Plates were incubated at 37°C for 14 hours. A twofold dilution series of 1 or 7 was prepared in RPMI + MOPS at 2× concentration with 0.002% resazurin, then 100 µL of the drug was added to wells, and plates were incubated for an additional 24 hours. Fluorescence was measured with an excitation wavelength of 570 nm and an emission wavelength of 615 nm. Data are representative of two independent experiments performed in biological triplicate.

[4] = system: A. fumigatus UPR-responsive genes; test: A. fumigatus UPR gene expression (qRT-PCR); type: cell-based, Aspergillus fumigatus
Protocol: We cultured 5 × 10^6 CEA10 conidia/mL in liquid GMM for 18 hours at 37°C with shaking at 250 rpm. Cultures were treated with either DMSO or 16 µg/mL 1 for 2 hours at 37°C, 250 rpm. Then 1 mM DTT or water was added, and cultures were incubated for an additional hour. Mycelia were collected with vacuum filtration and immediately frozen with liquid nitrogen. Tissue was lyophilized then ground with glass beads with a bead beater. RNA was extracted in 1 mL of TRIazole solution (Life Technologies, Cat # 15596026), then RNA was purified with two rounds of chloroform extraction. Five micrograms of RNA was treated with TURBO DNA-free kit (Invitrogen, Cat # AM1907) according to the manufacturer’s protocol. Five hundred nanograms of DNAse-treated RNA was used for cDNA synthesis with iScript cDNA synthesis kit (BioRad, Cat # 1708891), then cDNA was diluted 1:5 with ddH2O. Quantitative real time PCR analysis was performed in 20 µL reactions using 2 µL of dilute cDNA per reaction with iQ SYBR Green Supermix (BioRad). Samples were run on a BioRad CFX Connect using a three-step amplification with 54°C annealing temperature and melt curve analysis. Gene expression is normalized to tubA and tef1 expression. Gene expression was performed in biological triplicate. Primers to detect HacA splicing and targets were designed as previously described ([51]).

[5] = system: A. fumigatus ∆ireA; test: Susceptibility of ∆ireA mutant on GMM plates; type: cell-based, Aspergillus fumigatus; settings: 72 hours at 30°C, colony diameter ratio
Protocol: For Aspergillus fumigatus, 5 µL of 1 × 10^4 CEA10 conidia was spotted at the center of GMM plates containing DMSO or 1 µg/mL 1 in combination with DTT, brefeldin A, or tunicamycin. Plates were incubated at 37°C for 72 hours. Representative images of two independent experiments with three biological replicates each were obtained. For Ire1 strains, the cells were prepared as described above but were incubated at 30°C.

[6] = system: F. oxysporum; test: MIC testing (CLSI broth dilution); type: cell-based; settings: Fusarium oxysporum; strain DUMC Fo, clinical isolate; CLSI conditions, 72 h
Protocol: as §1

[7] = system: C. glabrata; test: MIC testing (CLSI broth dilution); type: cell-based; settings: Nakaseomyces glabratus; strain KK2001; CLSI conditions
Protocol: as §1

[8] = Mouse microsome stability; type: in vitro ADME; settings: mouse microsomes, 0.5 mg/mL microsomes, NADPH cofactors, 37°C
Protocol: 1 (2 mM in DMSO) was incubated at 37°C with 0.5 mg/mL mouse microsomes (lot # 2110330) fraction and Phase I (NADPH regenerating system) cofactors for 0–120 min at a final concentration of 2 µM. Reactions were quenched with 0.5 mL (1:1) of methanol containing formic acid (FA) 0.2% and 100 ng/mL n-benzylbenzamide internal standard (IS; 0.1% FA and 50ng/mL IS final). Samples were vortexed for 30 s, incubated at room temperature for 10 min, and spun for 5 min at 2,200 rpm in a tabletop centrifuge. Supernatant (~0.9 mL) was then transferred to an Eppendorf tube and spun in a 4°C microfuge for 5 min at 13,200 rpm. Supernatant was transferred to an high-performance liquid chromatography plate with seal and samples then analyzed by a 4500 LC-MS/MS.

[9] = combination: 16 µg/mL 1 for 2 hours, then 1 mM DTT for 1 hour
[10] = single agent (16 µg/mL 1, or 1 mM DTT for 1 hour), normalized to DMSO

Structure (SMILES): OC1CC(c2cc(N3CCC(CCc4ccccc4)CC3)ncn2)C1 (stereo not shown) [compound 1]
- MIC [1]: 8 µg/mL (≈ 23.7 µM)
- inhibition at 32 µg/mL [2]: ~50%
- IC50 ([3]; Aspergillus fumigatus, then treated 24 hours, read-out: IC50 of hyphal growth): 1.66 µg/mL (≈ 4.92 µM)
- inhibition of hyphal growth ([3]; escalating doses 24 hours): dose-dependent inhibition of hyphal growth
- increase in HacA^A splicing [4, 9]: 17 fold
- increase in HacA^B [4, 9]: 3 fold
- increase in BipA expression [4, 10]: 2 fold
- increase in PdiA expression [4, 10]: no change
- increase of spliced HacA (HacA^A) [4, 10]: about threefold
- susceptibility of ∆ireA mutant vs wild type [5]: same susceptibility as wild type
- MIC [6]: > 64 µg/mL
- MIC [7]: 64 µg/mL (≈ 190 µM)
- half-life at 2 µM [8]: 1.25 h
